Measured values reported in the supplement of paper PMC11451515.

System: NOMO1
Assay: cell viability relative to DMSO control; higher = less cytotoxic
Settings: 48 h
Procedure, shortened: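 Three leukemia lines were tested: NOMO1 and SEM at 500 cells/well and P12-Ichikawa at 1000 cells/well. Each was adapted for at least four passages in each medium and seeded in 5 μl in 1536-well plates, and library compounds in DMSO were pin-dosed from 47 μM to 0.79 nM in 11 threefold steps. After 48 h at 37°C, CellTiter-Glo One luminescence was read. Viability is a percentage relative to DMSO wells on each plate, with cell-free wells as background.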

[1] = HPLM + 10% dialyzed FBS, 0.000781 µM
[2] = HPLM + 10% dialyzed FBS, 0.00234 µM
[3] = HPLM + 10% dialyzed FBS, 0.00702 µM
[4] = HPLM + 10% dialyzed FBS, 0.0211 µM
[5] = HPLM + 10% dialyzed FBS, 0.0632 µM
[6] = HPLM + 10% dialyzed FBS, 0.19 µM
[7] = HPLM + 10% dialyzed FBS, 0.569 µM
[8] = HPLM + 10% dialyzed FBS, 1.71 µM
[9] = HPLM + 10% dialyzed FBS, 5.12 µM
[10] = HPLM + 10% dialyzed FBS, 15.4 µM
[11] = HPLM + 10% dialyzed FBS, 46.1 µM
[12] = RPMI 5 mM glucose + 10% FBS, 0.000781 µM
[13] = RPMI 5 mM glucose + 10% FBS, 0.00234 µM
[14] = RPMI 5 mM glucose + 10% FBS, 0.00702 µM
[15] = RPMI 5 mM glucose + 10% FBS, 0.0211 µM
[16] = RPMI 5 mM glucose + 10% FBS, 0.0632 µM
[17] = RPMI 5 mM glucose + 10% FBS, 0.19 µM
[18] = RPMI 5 mM glucose + 10% FBS, 0.569 µM
[19] = RPMI 5 mM glucose + 10% FBS, 1.71 µM
[20] = RPMI 5 mM glucose + 10% FBS, 5.12 µM
[21] = RPMI 5 mM glucose + 10% FBS, 15.4 µM
[22] = RPMI 5 mM glucose + 10% FBS, 46.1 µM
[23] = RPMI 5 mM glucose + 10% dialyzed FBS, 0.000781 µM
[24] = RPMI 5 mM glucose + 10% dialyzed FBS, 0.00234 µM
[25] = RPMI 5 mM glucose + 10% dialyzed FBS, 0.00702 µM
[26] = RPMI 5 mM glucose + 10% dialyzed FBS, 0.0211 µM
[27] = RPMI 5 mM glucose + 10% dialyzed FBS, 0.0632 µM
[28] = RPMI 5 mM glucose + 10% dialyzed FBS, 0.19 µM
[29] = RPMI 5 mM glucose + 10% dialyzed FBS, 0.569 µM
[30] = RPMI 5 mM glucose + 10% dialyzed FBS, 1.71 µM
[31] = RPMI 5 mM glucose + 10% dialyzed FBS, 5.12 µM
[32] = RPMI 5 mM glucose + 10% dialyzed FBS, 15.4 µM
[33] = RPMI 5 mM glucose + 10% dialyzed FBS, 46.1 µM

| SMILES | cell viability [1] [%] | cell viability [2] [%] | cell viability [3] [%] | cell viability [4] [%] | cell viability [5] [%] | cell viability [6] [%] | cell viability [7] [%] | cell viability [8] [%] | cell viability [9] [%] | cell viability [10] [%] | cell viability [11] [%] | cell viability [12] [%] | cell viability [13] [%] | cell viability [14] [%] | cell viability [15] [%] | cell viability [16] [%] | cell viability [17] [%] | cell viability [18] [%] | cell viability [19] [%] | cell viability [20] [%] | cell viability [21] [%] | cell viability [22] [%] | cell viability [23] [%] | cell viability [24] [%] | cell viability [25] [%] | cell viability [26] [%] | cell viability [27] [%] | cell viability [28] [%] | cell viability [29] [%] | cell viability [30] [%] | cell viability [31] [%] | cell viability [32] [%] | cell viability [33] [%] |
| --- | --- | --- | --- | --- | --- | --- | --- | --- | --- | --- | --- | --- | --- | --- | --- | --- | --- | --- | --- | --- | --- | --- | --- | --- | --- | --- | --- | --- | --- | --- | --- | --- | --- |
| Clc1cc(Cl)cc(CNc2ncncc2-c2ccc3c(c2)OCO3)c1 | 81.1 | 85.8 | 97.1 | 94.1 | 101 | 92.4 | 94.6 | 90.8 | 85.7 | 82.7 | 16.1 | 77.6 | 85.5 | 87.6 | 80.7 | 101 | 96.6 | 87.3 | 97.9 | 85.4 | 87.7 | 40.3 | 91.5 | 92.1 | 81.4 | 93.7 | 82 | 93.5 | 84.2 | 87.3 | 88.8 | 101 | 52.9 |
| O=C1Nc2ccc(Cl)cc2[C@@](C#CC2CC2)(C(F)(F)F)O1 | 74.7 | 97 | 76.4 | 85.9 | 97 | 84.8 | 80.2 | 81.4 | 59 | 57.2 | 79.8 | 73.7 | 78.2 | 77.1 | 80.7 | 88.7 | 80.8 | 79.3 | 80.4 | 81.3 | 77.3 | 12.5 | 70.1 | 90.1 | 92.3 | 101 | 97.9 | 95.9 | 95.6 | 93.2 | 86.7 | 95.7 | 78.3 |
| NC1=NC=C(C=C1)C2=CC=C3N=CC\4=C(N(C(=O)\C=C4)C5=CC(=CC=C5)C(F)(F)F)C3=C2 | 80.5 | 76.8 | 62.6 | 57.6 | 41.2 | 27.1 | 24.1 | 24.3 | 21.4 | 18.6 | 16.5 | 86.1 | 83.9 | 75.3 | 74.4 | 55 | 29.7 | 30.3 | 23.2 | 15.3 | 11.7 | 13.2 | 68.9 | 72.8 | 74.1 | 61.4 | 46 | 28.5 | 29.5 | 22.9 | 17.2 | 13.5 | 17.1 |
| CC(C)[C@@H](C[S+](=O)([O-])C(C)C)N1C(=O)[C@@](C)(CC(=O)O)C[C@H](c2cccc(Cl)c2)[C@H]1c1ccc(Cl)cc1 | 122 | 115 | 129 | 143 | 140 | 97.9 | 36.4 | 35.6 | 31.2 | 33.6 | 29.3 | 128 | 106 | 113 | 109 | 121 | 128 | 111 | 64.8 | 24.5 | 19.5 | 22.2 | 117 | 98.5 | 108 | 112 | 145 | 132 | 98.5 | 65.9 | 47.1 | 25.2 | 19.1 |
| CCC(=O)OCC(=O)[C@@]1(OC(=O)CC)[C@@H](C)C[C@H]2[C@@H]3CCC4=CC(=O)C=C[C@]4(C)[C@@]3(F)[C@@H](O)C[C@@]21C | 117 | 130 | 111 | 109 | 115 | 97.4 | 106 | 62.7 | 43.5 | 28.3 | 25.4 | 99.3 | 98.8 | 107 | 112 | 112 | 105 | 116 | 95 | 84.5 | 16.9 | 18.8 | 110 | 112 | 117 | 115 | 118 | 136 | 108 | 79.1 | 84.3 | 26.4 | 23.9 |
| CN(C)C(=O)c1ccc([S+](=O)([O-])c2ccc(NC(=O)[C@@](C)(O)C(F)(F)F)c(Cl)c2)cc1 | 104 | 104 | 114 | 123 | 95.9 | 128 | 126 | 105 | 91.3 | 33 | 10.2 | 104 | 109 | 102 | 105 | 114 | 101 | 112 | 99.4 | 105 | 38.7 | 13.5 | 95.9 | 109 | 116 | 118 | 108 | 104 | 104 | 91.2 | 99.8 | 89.7 | 60.4 |
| CCOC(=O)[C@H](CCc1ccccc1)N[C@@H](C)C(=O)N1CCC[C@H]1C(=O)O | 128 | 105 | 117 | 134 | 125 | 119 | 108 | 119 | 110 | 99.8 | 102 | 114 | 105 | 111 | 102 | 102 | 105 | 97.7 | 103 | 98.7 | 93.3 | 103 | 97.9 | 109 | 116 | 122 | 116 | 123 | 112 | 110 | 103 | 96 | 99.5 |
